Assays:
[1] = system: rats with controlled cortical impact (CCI) injury; assay: Beam walk test after CCI injury; type: in vivo, rat
Procedure: A previously described CCI injury procedure was utilized (Chen et al., 2003). Male Sprague-Dawley rats, which have body weight of 250-300 g, were anaesthetized with sodium pentobarbital (i.p.; 50 mgkg^−1; Rhone Merieux, Harlow, UK) and placed in a stereotaxic frame. A 5-mm craniotomy was performed over the left parietal cortex, centered on the coronal suture and 3 mm lateral to the sagittal suture. Considerable care was taken to avoid injury to the underlying dura. Injury was made using a pneumatic piston with a rounded metal tip (2.5 mm diameter) that was angled 22.5° C. to the vertical so that the tip was perpendicular with the brain surface at the centre of the craniotomy. A velocity of 4 ms^−1 and a deformation depth 2 mm below the dura were used. The bone flap was immediately replaced and sealed, and the scalp was closed with sutures. Body temperature was monitored throughout the surgery by a rectal probe; temperature was maintained at 37.0±0.5° C. using a heated pad. Rats were placed in a heated cage to maintain body temperature, while recovering from anaesthesia. Baicalein (30 mg kg^−1) dissolved in 10% dimethyl sulphoxide (0.25-0.3 mL) or a corresponding volume of vehicle (10% dimethyl sulphoxide) was administered i.p. immediately following injury or daily for 4 days (immediately, 25, 49 and 73 h) after injury. Behaviour testing using the rotarod, tactile adhesive removal, mNSS and beam walk tests was performed at 28 hours as well as 4, 7, 14, 21 and 28 days post-injury. At 14 and 28 days, the animals were killed, perfused intravascularly and their brains were processed with cresyl violet staining to assess contusion volume (n=8 for each group). […] Behaviour testing was performed before CCI and at […] by an observer who was unaware of the experimental treatments. The battery of tests consisted of the rotarod motor test, tactile adhesive-removal somatosensory test, mNSS and beam walk test. Animals were pretrained for 3 days for the rotarod, tactile adhesiveremoval somatosensory and beam walk tests (see below). The beam walk test was utilized to evaluate fine motor coordination and function (Feeney et al., 1982). Rats escaped from a bright light and loud white noise by walking along a narrowed wooden beam (2.5×122.0 cm) to enter a darkened goal box at the opposite end of the beam. The latency for the rat to reach the goal box (not to exceed 60 s) and hindlimb performance as he traversed the beam (based on a 1-7 rating scale) were recorded. A score of 7 was given when animals traversed the beam with two or less foot slips. A score of 6 was given when animals traversed the beam with less than 50% foot slips. A score of 5 was given for more than 50% but less than 100% foot slips. A score of 4 was given for 100% foot slips. A score of 3 was given for traversal with the affected limb extended and not reaching the surface of the beam. A score of 2 was given when the animal was able to balance on the beam but not traverse it. A score of 1 was given when the animal could not balance on the beam. Three trials were recorded 1 hour before CCI (baseline), and each day after CCI. Mean values of latency and score for each day were computed.

[2] = system: rats with controlled cortical impact (CCI) injury; assay: Tactile adhesive-removal somatosensory test after CCI injury; type: in vivo, rat; settings: P<0.05; for adhesive-removal times versus vehicle-treated rats: days 1, 4 and 7
Procedure: A previously described CCI injury procedure was utilized (Chen et al., 2003). Male Sprague-Dawley rats, which have body weight of 250-300 g, were anaesthetized with sodium pentobarbital (i.p.; 50 mgkg^−1; Rhone Merieux, Harlow, UK) and placed in a stereotaxic frame. A 5-mm craniotomy was performed over the left parietal cortex, centered on the coronal suture and 3 mm lateral to the sagittal suture. Considerable care was taken to avoid injury to the underlying dura. Injury was made using a pneumatic piston with a rounded metal tip (2.5 mm diameter) that was angled 22.5° C. to the vertical so that the tip was perpendicular with the brain surface at the centre of the craniotomy. A velocity of 4 ms^−1 and a deformation depth 2 mm below the dura were used. The bone flap was immediately replaced and sealed, and the scalp was closed with sutures. Body temperature was monitored throughout the surgery by a rectal probe; temperature was maintained at 37.0±0.5° C. using a heated pad. Rats were placed in a heated cage to maintain body temperature, while recovering from anaesthesia. Baicalein (30 mg kg^−1) dissolved in 10% dimethyl sulphoxide (0.25-0.3 mL) or a corresponding volume of vehicle (10% dimethyl sulphoxide) was administered i.p. immediately following injury or daily for 4 days (immediately, 25, 49 and 73 h) after injury. Behaviour testing using the rotarod, tactile adhesive removal, mNSS and beam walk tests was performed at 28 hours as well as 4, 7, 14, 21 and 28 days post-injury. At 14 and 28 days, the animals were killed, perfused intravascularly and their brains were processed with cresyl violet staining to assess contusion volume (n=8 for each group). […] Behaviour testing was performed before CCI and at […] after CCI by an observer who was unaware of the experimental treatments. […] The time required for each rat to remove adhesive from the forelimb was recorded for five trials per day. […] One hour before CCI, mean latency (in seconds) over five trials to remove the contralateral (right) adhesive was recorded as the pre-injury baseline value.

O=c1cc(-c2ccccc2)oc2cc(O)c(O)c(O)c12 [baicalein]
differences in hindlimb motor scores between single-dose and multiple-dose groups ([1]; 30 mg kg^-1 i.p., any testing day, P>0.05): not significant | beam walk latencies, multiple-dose versus single-dose group ([1]; 30 mg kg^-1 i.p., days 1 and 4, P<0.05): significantly shorter | beam walk latencies versus vehicle group ([1]; multiple-dose 30 mg kg^-1 i.p. daily for 4 days, days 1, 4, 7, 21 and 28, P<0.05): significantly shorter | decrease in hindlimb motor scores (beam walk) versus vehicle group ([1]; multiple-dose 30 mg kg^-1 i.p. daily for 4 days, days 1, 4, 14, 21 and 28, P<0.05): significantly different | decrease in hindlimb motor scores (beam walk) versus vehicle group ([1]; single-dose 30 mg kg^-1 i.p., days 4, 7, 14 and 21, P<0.05): significantly different | beam walk latencies versus vehicle group ([1]; single-dose 30 mg kg^-1 i.p., days 4 and 21, P<0.05): significantly shorter | adhesive-removal times, multiple doses versus single dose ([2]; 30 mg kg^-1 i.p., only on day 7 after injury): significantly lower | adhesive-removal times versus vehicle-treated rats ([2]; multiple-dose 30 mg kg^-1 i.p. daily for 4 days): significantly lower | adhesive-removal times versus vehicle-treated rats ([2]; single-dose 30 mg kg^-1 i.p.): significantly lower

From patent US20100222421A1, “Usage of Baicalein in the Preparation of a Pharmaceutical Composition for the Treatment of Traumatic Brain Injury” (National Defense Medical Center, priority 2009, published 2010)
